Experimental data: PMC3961306, “Comparison of the Cancer Gene Targeting and Biochemical Selectivities of All Targeted Kinase Inhibitors Approved for Clinical Use” (PLoS ONE, 2014)

What was measured:
Assay in all cases: Kinase profiling in a biochemical assay panel (mobility shift assays and ELISA), %-inhibition at 1 μM; selectivity entropy
[1] = target: panel of more than 300 wild-type and mutant kinases (313 kinase panel) (Homo sapiens, UniProt P00533, L858R/T790M)
[2] = target: panel of more than 300 wild-type and mutant kinases (313 kinase panel) (Homo sapiens, UniProt P07947, T348I)
[3] = target: panel of more than 300 wild-type and mutant kinases (313 kinase panel) (Homo sapiens, UniProt P09619); details: kinase PDGFRβ; 1 μM
[4] = target: panel of more than 300 wild-type and mutant kinases (313 kinase panel) (Homo sapiens, UniProt P15056)
Sequence of panel of more than 300 wild-type and mutant kinases (313 kinase panel) (Homo sapiens, UniProt P15056) (P15056 whole entry, stated change not applied): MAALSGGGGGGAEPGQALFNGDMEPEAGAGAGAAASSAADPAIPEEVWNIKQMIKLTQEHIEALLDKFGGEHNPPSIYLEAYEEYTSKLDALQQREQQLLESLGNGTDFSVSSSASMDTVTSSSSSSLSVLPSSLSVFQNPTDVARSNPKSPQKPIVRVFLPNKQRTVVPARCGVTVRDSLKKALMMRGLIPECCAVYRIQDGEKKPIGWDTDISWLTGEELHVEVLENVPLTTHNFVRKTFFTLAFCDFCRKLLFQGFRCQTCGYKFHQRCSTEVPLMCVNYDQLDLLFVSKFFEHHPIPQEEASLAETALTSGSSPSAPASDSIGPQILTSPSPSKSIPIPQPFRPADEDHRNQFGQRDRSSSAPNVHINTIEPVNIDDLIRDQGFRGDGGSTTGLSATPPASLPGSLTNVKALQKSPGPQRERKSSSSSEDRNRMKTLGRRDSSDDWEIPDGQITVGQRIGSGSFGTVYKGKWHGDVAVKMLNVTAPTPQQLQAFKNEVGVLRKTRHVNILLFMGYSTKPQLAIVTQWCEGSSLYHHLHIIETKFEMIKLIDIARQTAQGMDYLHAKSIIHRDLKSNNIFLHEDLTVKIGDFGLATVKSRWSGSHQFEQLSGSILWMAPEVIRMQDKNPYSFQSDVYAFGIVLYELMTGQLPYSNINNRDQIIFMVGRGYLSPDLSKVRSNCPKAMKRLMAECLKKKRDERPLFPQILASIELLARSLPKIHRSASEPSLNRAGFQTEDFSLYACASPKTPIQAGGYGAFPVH

[5] = target: panel of more than 300 wild-type and mutant kinases (313 kinase panel) (Homo sapiens, UniProt P15056, V600E)
Sequence of panel of more than 300 wild-type and mutant kinases (313 kinase panel) (Homo sapiens, UniProt P15056, V600E) (P15056 whole entry V600E): as the sequence (P15056 whole entry, stated change not applied) above, with V600E counted along it

[6] = target: panel of more than 300 wild-type and mutant kinases (313 kinase panel) (Homo sapiens, UniProt P22612); details: kinase PKACγ; 1 μM
[7] = target: panel of more than 300 wild-type and mutant kinases (313 kinase panel) (Homo sapiens, UniProt P35968)
[8] = target: panel of more than 300 wild-type and mutant kinases (313 kinase panel) (Homo sapiens, UniProt Q9UM73, R1275Q)
Sequence of panel of more than 300 wild-type and mutant kinases (313 kinase panel) (Homo sapiens, UniProt Q9UM73, R1275Q) (Q9UM73 19-1620 R1275Q): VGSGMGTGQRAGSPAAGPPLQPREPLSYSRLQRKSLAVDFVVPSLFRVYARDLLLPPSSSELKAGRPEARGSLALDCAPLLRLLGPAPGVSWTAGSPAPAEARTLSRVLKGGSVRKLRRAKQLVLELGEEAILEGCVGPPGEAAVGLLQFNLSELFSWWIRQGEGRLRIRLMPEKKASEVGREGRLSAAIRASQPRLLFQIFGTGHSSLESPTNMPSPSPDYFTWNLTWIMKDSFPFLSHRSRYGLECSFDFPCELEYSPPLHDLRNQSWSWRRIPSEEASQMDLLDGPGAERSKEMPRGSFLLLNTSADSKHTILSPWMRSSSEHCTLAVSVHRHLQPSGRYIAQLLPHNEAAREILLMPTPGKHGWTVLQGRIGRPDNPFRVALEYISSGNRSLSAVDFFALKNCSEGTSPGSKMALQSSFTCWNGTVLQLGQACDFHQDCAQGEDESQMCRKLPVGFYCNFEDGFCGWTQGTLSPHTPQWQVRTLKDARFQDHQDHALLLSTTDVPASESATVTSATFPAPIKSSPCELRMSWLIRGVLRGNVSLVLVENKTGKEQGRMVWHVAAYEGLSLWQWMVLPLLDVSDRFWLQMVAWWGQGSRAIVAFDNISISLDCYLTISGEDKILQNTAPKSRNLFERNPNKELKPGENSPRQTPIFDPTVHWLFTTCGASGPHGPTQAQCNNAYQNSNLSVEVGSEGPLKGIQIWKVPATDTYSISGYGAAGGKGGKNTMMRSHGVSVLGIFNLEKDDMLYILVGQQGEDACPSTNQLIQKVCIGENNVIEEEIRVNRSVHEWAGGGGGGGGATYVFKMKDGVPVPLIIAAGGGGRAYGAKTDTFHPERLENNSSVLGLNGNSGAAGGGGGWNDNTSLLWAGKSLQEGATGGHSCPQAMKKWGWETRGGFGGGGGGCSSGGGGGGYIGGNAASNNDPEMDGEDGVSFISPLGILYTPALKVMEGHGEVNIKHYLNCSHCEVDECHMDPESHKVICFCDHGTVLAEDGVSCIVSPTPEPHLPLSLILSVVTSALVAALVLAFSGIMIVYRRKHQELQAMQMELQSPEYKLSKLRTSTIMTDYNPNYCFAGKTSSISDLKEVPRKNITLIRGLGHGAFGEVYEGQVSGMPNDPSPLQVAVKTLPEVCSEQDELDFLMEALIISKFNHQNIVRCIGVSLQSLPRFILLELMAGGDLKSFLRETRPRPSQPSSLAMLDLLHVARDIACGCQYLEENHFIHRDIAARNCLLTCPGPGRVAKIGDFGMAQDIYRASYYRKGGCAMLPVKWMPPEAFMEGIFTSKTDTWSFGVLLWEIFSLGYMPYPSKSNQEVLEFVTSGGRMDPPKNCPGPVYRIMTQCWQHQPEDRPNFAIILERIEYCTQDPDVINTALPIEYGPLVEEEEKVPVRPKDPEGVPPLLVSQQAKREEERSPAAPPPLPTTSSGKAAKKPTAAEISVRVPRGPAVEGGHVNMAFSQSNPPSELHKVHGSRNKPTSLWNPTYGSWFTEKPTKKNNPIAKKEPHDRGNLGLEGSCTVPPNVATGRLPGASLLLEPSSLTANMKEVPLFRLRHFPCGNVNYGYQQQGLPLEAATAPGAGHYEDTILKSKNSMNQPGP

[9] = target: panel of more than 300 wild-type and mutant kinases (313 kinase panel) (Homo sapiens, UniProt P00519)
[10] = target: panel of more than 300 wild-type and mutant kinases (313 kinase panel) (Homo sapiens, UniProt P00519, T315I)
[11] = target: panel of more than 300 wild-type and mutant kinases (313 kinase panel) (Homo sapiens, UniProt P00533)
Sequence of panel of more than 300 wild-type and mutant kinases (313 kinase panel) (Homo sapiens, UniProt P00533) (P00533 25-1210, stated change not applied): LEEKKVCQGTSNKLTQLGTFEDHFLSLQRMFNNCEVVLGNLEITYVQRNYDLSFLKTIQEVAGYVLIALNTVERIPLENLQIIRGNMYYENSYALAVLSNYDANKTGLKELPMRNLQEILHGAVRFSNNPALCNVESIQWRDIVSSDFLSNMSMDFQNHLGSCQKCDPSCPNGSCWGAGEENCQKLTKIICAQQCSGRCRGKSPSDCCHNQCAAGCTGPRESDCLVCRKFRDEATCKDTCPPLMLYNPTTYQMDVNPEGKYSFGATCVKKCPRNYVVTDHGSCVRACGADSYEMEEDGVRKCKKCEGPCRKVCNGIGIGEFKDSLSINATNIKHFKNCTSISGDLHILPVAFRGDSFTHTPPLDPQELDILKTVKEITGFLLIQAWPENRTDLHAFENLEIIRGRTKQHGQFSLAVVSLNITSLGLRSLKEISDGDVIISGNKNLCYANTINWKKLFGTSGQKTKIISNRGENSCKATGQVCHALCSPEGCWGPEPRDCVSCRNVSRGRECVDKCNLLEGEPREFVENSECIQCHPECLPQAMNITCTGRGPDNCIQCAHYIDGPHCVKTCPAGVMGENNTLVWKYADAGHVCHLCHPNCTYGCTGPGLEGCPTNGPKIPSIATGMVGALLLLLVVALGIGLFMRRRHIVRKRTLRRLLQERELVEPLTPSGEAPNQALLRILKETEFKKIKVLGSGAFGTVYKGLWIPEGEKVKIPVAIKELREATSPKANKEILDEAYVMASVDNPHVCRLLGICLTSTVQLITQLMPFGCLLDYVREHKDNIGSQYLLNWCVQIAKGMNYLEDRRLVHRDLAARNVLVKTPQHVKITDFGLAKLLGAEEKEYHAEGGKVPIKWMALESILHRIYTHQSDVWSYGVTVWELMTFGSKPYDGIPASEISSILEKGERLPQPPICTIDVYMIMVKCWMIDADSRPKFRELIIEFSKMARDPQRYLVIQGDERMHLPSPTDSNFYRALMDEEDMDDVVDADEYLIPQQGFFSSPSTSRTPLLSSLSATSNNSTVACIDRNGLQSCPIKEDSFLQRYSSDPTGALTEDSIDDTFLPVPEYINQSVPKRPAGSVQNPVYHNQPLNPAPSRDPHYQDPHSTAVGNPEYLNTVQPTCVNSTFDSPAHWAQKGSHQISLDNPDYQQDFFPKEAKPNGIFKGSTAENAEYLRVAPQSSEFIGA

[12] = target: panel of more than 300 wild-type and mutant kinases (313 kinase panel) (Homo sapiens, UniProt P00533, L861Q); details: kinase EGFR(L861Q); compound at 1 μM
[13] = target: panel of more than 300 wild-type and mutant kinases (313 kinase panel) (Homo sapiens, UniProt P00533, T790M); details: kinase EGFR(T790M); compound at 1 μM
[14] = target: T1, panel of more than 300 wild-type and mutant kinases (313 kinase panel) (Homo sapiens, UniProt O00444)
T1 sequence (O00444 1-970): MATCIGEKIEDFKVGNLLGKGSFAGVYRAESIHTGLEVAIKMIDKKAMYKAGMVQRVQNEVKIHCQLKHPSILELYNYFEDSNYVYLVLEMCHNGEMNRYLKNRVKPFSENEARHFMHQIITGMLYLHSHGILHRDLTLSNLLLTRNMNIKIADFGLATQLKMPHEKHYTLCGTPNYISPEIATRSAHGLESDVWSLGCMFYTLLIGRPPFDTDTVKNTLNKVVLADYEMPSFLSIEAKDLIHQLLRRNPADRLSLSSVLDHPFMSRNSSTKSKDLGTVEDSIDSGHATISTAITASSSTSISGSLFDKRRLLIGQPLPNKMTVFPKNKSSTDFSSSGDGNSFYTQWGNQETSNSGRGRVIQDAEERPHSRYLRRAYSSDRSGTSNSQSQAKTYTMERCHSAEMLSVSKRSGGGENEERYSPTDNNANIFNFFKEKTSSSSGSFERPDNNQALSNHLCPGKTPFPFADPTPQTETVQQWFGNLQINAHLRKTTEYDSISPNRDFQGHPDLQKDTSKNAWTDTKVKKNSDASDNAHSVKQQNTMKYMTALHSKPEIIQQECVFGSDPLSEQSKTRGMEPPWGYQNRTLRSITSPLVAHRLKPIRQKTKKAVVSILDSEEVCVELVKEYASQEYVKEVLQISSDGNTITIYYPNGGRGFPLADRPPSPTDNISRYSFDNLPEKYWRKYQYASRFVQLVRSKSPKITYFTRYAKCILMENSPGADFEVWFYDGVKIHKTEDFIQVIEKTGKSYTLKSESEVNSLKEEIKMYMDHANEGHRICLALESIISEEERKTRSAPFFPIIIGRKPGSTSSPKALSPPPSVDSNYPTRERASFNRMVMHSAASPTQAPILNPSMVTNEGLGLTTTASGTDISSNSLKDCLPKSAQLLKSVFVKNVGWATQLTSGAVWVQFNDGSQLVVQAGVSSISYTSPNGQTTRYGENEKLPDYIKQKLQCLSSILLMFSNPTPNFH

[15] = kinase EGFR(T790M/L858R), compound at 1 μM
[16] = kinase YES(T348I), compound at 1 μM
[17] = kinase BRAF(V600E), 1 μM compound
[18] = kinase ALK(R1275Q), 1 μM compound
[19] = kinase ABL(T315I), 1 μM compound

Sequence of panel of more than 300 wild-type and mutant kinases (313 kinase panel) (Homo sapiens, UniProt P00533, L858R/T790M) (P00533 25-1210 T790M/L858R): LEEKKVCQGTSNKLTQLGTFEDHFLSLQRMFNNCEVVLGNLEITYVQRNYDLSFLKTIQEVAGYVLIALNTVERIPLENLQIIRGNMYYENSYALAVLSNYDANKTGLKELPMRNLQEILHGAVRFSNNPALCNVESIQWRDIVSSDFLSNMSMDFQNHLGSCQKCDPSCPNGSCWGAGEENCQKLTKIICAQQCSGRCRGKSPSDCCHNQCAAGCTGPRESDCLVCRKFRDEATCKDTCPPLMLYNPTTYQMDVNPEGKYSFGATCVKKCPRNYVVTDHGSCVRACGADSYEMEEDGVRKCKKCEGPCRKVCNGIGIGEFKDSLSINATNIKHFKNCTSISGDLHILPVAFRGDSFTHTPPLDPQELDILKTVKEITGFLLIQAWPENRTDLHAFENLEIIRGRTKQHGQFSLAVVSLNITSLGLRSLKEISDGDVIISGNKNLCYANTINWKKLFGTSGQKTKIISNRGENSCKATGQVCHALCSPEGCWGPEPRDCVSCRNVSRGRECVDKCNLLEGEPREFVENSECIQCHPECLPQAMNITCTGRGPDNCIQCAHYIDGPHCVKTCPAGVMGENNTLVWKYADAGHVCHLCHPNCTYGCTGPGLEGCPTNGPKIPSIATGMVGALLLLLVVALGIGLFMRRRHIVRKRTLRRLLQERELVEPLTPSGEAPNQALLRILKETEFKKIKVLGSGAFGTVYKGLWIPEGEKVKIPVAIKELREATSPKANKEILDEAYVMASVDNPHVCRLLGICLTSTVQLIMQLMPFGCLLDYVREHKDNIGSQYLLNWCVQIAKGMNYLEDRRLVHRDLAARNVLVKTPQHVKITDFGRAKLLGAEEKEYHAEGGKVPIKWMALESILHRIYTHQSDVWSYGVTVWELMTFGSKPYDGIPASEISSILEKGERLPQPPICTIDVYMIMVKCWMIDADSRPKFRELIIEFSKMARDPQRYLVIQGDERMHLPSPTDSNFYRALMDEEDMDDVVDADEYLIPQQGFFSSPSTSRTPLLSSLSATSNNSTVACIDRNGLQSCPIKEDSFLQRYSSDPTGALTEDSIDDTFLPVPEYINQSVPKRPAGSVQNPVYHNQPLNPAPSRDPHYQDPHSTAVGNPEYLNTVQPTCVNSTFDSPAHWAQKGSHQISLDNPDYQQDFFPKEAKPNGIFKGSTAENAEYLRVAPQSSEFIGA

Row | SMILES | %-inhibition of EGFR(T790M/L858R) [1, 15] [%] | %-inhibition of YES(T348I) [2, 16] [%] | %-inhibition of PDGFRβ [3] [%] | %-inhibition, BRAF ([4]; kinase BRAF, 1 μM compound) [%] | %-inhibition, BRAF(V600E) [5, 17] [%] | %-inhibition of PKACγ [6] [%] | %-inhibition of KDR ([7]; kinase KDR, compound at 1 μM) [%] | %-inhibition, ALK(R1275Q) [8, 18] [%] | %-inhibition of EGFR(T790M) [13] [%] | also measured
1 | CO[C@H]1C[C@@H]2CC[C@@H](C)[C@@](O)(O2)C(=O)C(=O)N2CCCC[C@H]2C(=O)O[C@H]([C@H](C)C[C@@H]2CC[C@@H](OC(=O)C(C)(CO)CO)[C@H](OC)C2)CC(=O)[C@H](C)/C=C(\C)[C@@H](O)[C@@H](OC)C(=O)[C@H](C)C[C@H](C)/C=C/C=C/C=C/1C [temsirolimus] | -2.75 | -0.177 | -2.27 | -3.36 | -0.864 | -6 | -7 | -1.39 | – | –
2 | CNC(=O)c1cc(Oc2ccc(NC(=O)Nc3ccc(Cl)c(C(F)(F)F)c3)c(F)c2)ccn1 [regorafenib] | 1.68 | 40 | – | – | – | -0.823 | 103 | 5 | -7.38 | %-inhibition, ABL ([9]; kinase ABL, 1 μM compound): 68%; %-inhibition, ABL(T315I) [10, 19]: 66%; %-inhibition of EGFR ([11]; kinase EGFR, compound at 1 μM): 12%; %-inhibition of EGFR(L861Q) [12]: 6%
3 | CO[C@H]1C[C@@H]2CC[C@@H](C)[C@@](O)(O2)C(=O)C(=O)N2CCCC[C@H]2C(=O)O[C@H]([C@H](C)C[C@@H]2CC[C@@H](OCCO)[C@H](OC)C2)CC(=O)[C@H](C)/C=C(\C)[C@@H](O)[C@@H](OC)C(=O)[C@H](C)C[C@H](C)/C=C/C=C/C=C/1C [everolimus] | -5 | -0.414 | -3.52 | -6.54 | 2 | -7.41 | -6.38 | -4.29 | – | –
4 | COc1cc2nccc(Oc3ccc(NC(=O)C4(C(=O)Nc5ccc(F)cc5)CC4)cc3)c2cc1OC [cabozantinib] | 29 | 67 | 84 | 25 | 37 | -2.59 | – | 79 | 32 | %-inhibition, ABL ([9]; kinase ABL, 1 μM compound): 56%; %-inhibition of EGFR ([11]; kinase EGFR, compound at 1 μM): 54%; %-inhibition of EGFR(L861Q) [12]: 46%
5 | COc1cc2c(Nc3ccc(Br)cc3F)ncnc2cc1OCC1CCN(C)CC1 [vandetanib] | – | 100 | – | 24 | 18 | 6 | – | – | – | –
6 | N#CC[C@H](C1CCCC1)n1cc(-c2ncnc3[nH]ccc23)cn1 [ruxolitinib] | -0.336 | – | – | 14 | 6 | 11 | 6.52 | – | -8 | %-inhibition, ABL ([9]; 1 µM): 5%; %-inhibition, ABL(T315I) ([10]; 1 µM): 4%; %-inhibition of EGFR ([11]; kinase EGFR, compound at 1 μM): -0.278%; %-inhibition of EGFR(L861Q) [12]: -3.22%; %-inhibition of YES(T348I) ([2]; 1 µM): 5%; %-inhibition, ALK(R1275Q) ([8]; 1 µM): 49%
7 | C[C@@H](Oc1cc(-c2cnn(C3CCNCC3)c2)cnc1N)c1c(Cl)ccc(F)c1Cl [crizotinib] | – | 93 | 18 | 12 | 10 | -6.52 | – | – | – | –
8 | CCCS(=O)(=O)Nc1ccc(F)c(C(=O)c2c[nH]c3ncc(-c4ccc(Cl)cc4)cc23)c1F [vemurafenib] | 5 | 4 | 33 | 99 | – | -3 | 13 | 3.57 | -5.57 | %-inhibition, ABL ([9]; kinase ABL, 1 μM compound): 15%; %-inhibition, ABL(T315I) [10, 19]: 7%; %-inhibition of EGFR ([11]; kinase EGFR, compound at 1 μM): 7%; %-inhibition of EGFR(L861Q) [12]: 5%
9 | O=S(=O)(c1cccc2cnccc12)N1CCCNCC1 [fasudil] | – | 6 | 12 | -3.28 | 3.36 | – | 1.78 | -1.83 | – | %-inhibition, ABL ([9]; kinase ABL, 1 μM compound): -8%; %-inhibition, ABL(T315I) [10, 19]: 1.7%
10 | C#Cc1cccc(Nc2ncnc3cc(OCCOC)c(OCCOC)cc23)c1 [erlotinib] | – | – | – | – | – | – | – | – | – | %-inhibition of PLK4 ([14]; 1 µM): 9%; %-inhibition, ABL ([9]; 1 µM): 64%; %-inhibition, BRAF ([4]; 1 µM): 14%; %-inhibition, BRAF(V600E) ([5]; 1 µM): 8%; %-inhibition of KDR ([7]; 1 µM): 74%
11 | COc1cc(Nc2c(C#N)cnc3cc(OCCCN4CCN(C)CC4)c(OC)cc23)c(Cl)cc1Cl [bosutinib] | – | – | 95 | – | – | 53 | – | 61 | 87 | –
12 | CCN(CC)CCNC(=O)c1c(C)[nH]c(/C=C2\C(=O)Nc3ccc(F)cc32)c1C [sunitinib] | – | – | – | – | – | – | – | – | – | %-inhibition of PLK4 ([14]; kinase PLK4, 1 μM): 58%
13 | CC(=O)Nc1cccc(-n2c(=O)n(C3CC3)c(=O)c3c(Nc4ccc(I)cc4F)n(C)c(=O)c(C)c32)c1 [trametinib] | -6.51 | -2.82 | 3.44 | 78 | 37 | 2 | -0.549 | -1.83 | – | –
14 | Cc1ccc(C(=O)Nc2ccc(CN3CCN(C)CC3)c(C(F)(F)F)c2)cc1C#Cc1cnc2cccnn12 [ponatinib] | – | 96 | 102 | 89 | 84 | – | – | 45 | – | %-inhibition of EGFR ([11]; 1 µM): 97%; %-inhibition of EGFR(T790M/L858R) ([1]; 1 µM): 49%
